Data from patent publication US8962793B2, “ErbB interface peptidomimetics and methods of use thereof” (The Trustees of the University of Pennsylvania, priority 2001, dated 2015).
Read-outs that look alike come from different tables or passages of the source. Bridge positions count the residues as written; N and C are the ends. Peptide text beside a SMILES is read from it.

What was measured:
ErbB3 = target: T1, ErbB3 (Homo sapiens, UniProt P21860); test: Surface plasmon resonance (Biacore) binding to immobilized ErbB3 extracellular domain
T1 construct: gift of Dr. Mark A. Lemmon, University of Pennsylvania School of Medicine
Method: (§1) The designed erbB peptides were tested for binding to erbB receptors using surface plasmon resonance (Biacore) technology (described supra) using soluble erbB-1 and erbB-3. The response was plotted in real time in the form of sensorgram curves.
(§2) Binding experiments were performed with the surface plasmon resonance based biosensor instrument Biacore 3000 (Biacore AB, Uppsala, Sweden), at 25° C. […] (erbB2) and Dr. Mark A. Lemmon, Department of Biochemistry and Biophysics, University of Pennsylvania School of Medicine (erbB1 and erbB3). Immobilization of the erbB receptors in the sensor surface was performed following the standard amine coupling procedure according to manufacturer's instructions. Briefly, 35 μl of a solution containing 0.2 M N-ethyl-N′-(dimethylaminopropyl) carbodiimide (EDC) and 0.05 M N-hydroxysuccinimide (NHS), were injected at a flow rate of 5 μl/min to activate carboxyl groups on the sensor chip surface. Receptors (40 ng/ml in 10 mM NaOAc buffer, pH 5.0) were flowed over the chip surface at a flow rate of 20 μl/min until the desired level bound protein was reached. Unreacted protein was washed out and unreacted activated groups were blocked by the injection of 35 μl of 1 M ethanolamine at 5 μl/min. […] A reference surface was generated simultaneously under the same conditions but without receptor injection and used as a blank to correct for instrument and buffer artifacts. Peptides were injected at variable concentrations at 20 μl/min flow rate and binding to the receptors immobilized on the chip was monitored in real time. Each sensorgram consists of an association phase (first 240 s), reflecting binding of the injected peptide to the receptor, followed by a dissociation phase (300 s), during which the running buffer is passed over the chip and the bound peptide is being washed off the receptor surface.

[1] = target: T2, erbB3-erbB3 homomerization (Homo sapiens, UniProt P21860); test: SPR inhibition of HRGβ1-induced binding of ErbB3 to immobilized ErbB3; conditions: peptide 10 μm, ErbB3 300 nm, HRGβ1 5 μM
T2 construct: the ectodomains of erbB receptors were immobilized on the surface chip; erbB3: gift of Dr. Mark A. Lemmon
Method: (§3) The effect of cysteine-knot mimetics on receptor self-associations, was examined using a Biacore assay in which the ectodomains of erbB receptors were immobilized on the surface chip and the ectodomain of erbB3 was injected at 300 nM concentrations either alone or in the presence of 5 μM hereglunin HRGβ1.
(§4) The effect of the erbB peptides on heregulin-induced receptor self-associations was studied by preinjecting them at 10 μM followed by injection of erbB3-HRGβ1 (FIG. 4; 1B, 2B, 3B).
as §2

ErbB1 = target: T3, ErbB1 (Homo sapiens, UniProt P00533); test: Surface plasmon resonance (Biacore) binding to immobilized ErbB1 extracellular domain
T3 construct: gift of Dr. Mark A. Lemmon, University of Pennsylvania School of Medicine
Method: as §1, §2

[2] = target: T4, erbB3-erbB1 heteromerization (Homo sapiens, UniProt P00533); test: SPR inhibition of HRGβ1-induced binding of ErbB3 to immobilized ErbB1; conditions: peptide 10 μm, ErbB3 300 nm, HRGβ1 5 μM
T4 construct: the ectodomains of erbB receptors were immobilized on the surface chip; erbB1 and erbB3: gift of Dr. Mark A. Lemmon
Method: as §3, §4, §2

[3] = target: T5, erbB3-erbB2 heteromerization (Homo sapiens, UniProt P04626); test: SPR inhibition of HRGβ1-induced binding of ErbB3 to immobilized ErbB2; conditions: peptide 10 μm, ErbB3 300 nm, HRGβ1 5 μM
T5 construct: the ectodomains of erbB receptors were immobilized on the surface chip; erbB2: Dr. Che Law, Xcyte Therapeutics; erbB3: Dr. Mark A. Lemmon
Method: as §3, §4, §2

ErbB2 = target: T6, ErbB2 (Homo sapiens, UniProt P04626); test: Surface plasmon resonance (Biacore) binding to immobilized ErbB2 extracellular domain
T6 construct: provided by Dr. Che Law, Xcyte Therapeutics, Seattle
Method: as §1, with “curves. Dissociation constants (Kd) were determined as described (Park, et al. 2000, Nat. Biotechnol. 18:194-198).” for “curves.”
A sensorgram for binding of B2-S22-APE peptide to erbB receptors immobilized on the sensor chip was performed.
as §2

erbB2-SbdIV = target: T7, erbB2-SbdIV (Homo sapiens, UniProt P04626); test: Surface plasmon resonance binding to immobilized recombinant erbB2-SbdIV
T7 construct: The DNA fragment encoding the subdomain IV of erbB2 (erbB2-SbdIV) was generated by polymerase chain reaction; GST (N); made in house; host or cells: Escherichia coli BL-21 (DE3), vector pGEX-5X-3
Text: Since erbB peptides are derived from subdomain IV of different erbB receptors, this fact indicates direct involvement of subdomain IV in receptor-receptor interactions between the members of erbB receptor family.
The DNA fragment encoding the subdomain IV of erbB2 (erbB2-SbdIV) was generated by polymerase chain reaction. The upstream primer was 5′-[…]-3′ [SEQ ID NO: 44] and the downstream primer was 5′-[…]-3′. [SEQ ID NO: 45] These two primers were designed to include BamHI and Not I restriction sites, respectively, for inframe insertion into the BamHI/Not I linearized pGEX-5X-3 vector. Recombinant vector was used to infect Escherichia coli BL-21 (DE3). 100 ml of the 2XYT medium were inoculated with 10 ml of the overnight culture and grown at 37° C. until the OD600 of 0.4-0.5 was reached. IPTG was added to the medium at the final concentration of 0.1 mM and grown for 2 hrs. The cells were spun down by centrifugation at 4,000 g for 10 min and resuspended with 5 ml of cold PBS (with DTT, PMSF and aprotinin at the final concentration of 5 mM, 1 mM and 1 μg/ml respectively). After sonication on ice, Triton X-100 was added to the final concentration of 1% and the solution was rocked at 4° C. for 1 hr and centrifuged at 10,000 g for 10 min. 100 μl of glutathione sepharose bead was then added to the supernatant. It was rocked at 4° C. for 2-4 hrs, centrifuged and washed three times with PBS. 100 μl elution buffer was added followed by rotation for 10 min at room temperature, centrifugation at 300 g for 1 min and collection of the supernatant. Elutions were repeated three times and combined.
Binding experiments were performed with the surface plasmon resonance based biosensor instrument Biacore 3000 (Biacore AB, Uppsala, Sweden), at 25° C. Recombinant purified erbB receptors were provided by Dr. Che Law, Xcyte Therapeutics, Seattle, Wash. […] Peptides were injected at variable concentrations at 20 μl/min flow rate and binding to the receptors immobilized on the chip was monitored in real time. […]

[4] = immobilized extracellular domain, surface plasmon resonance, read-out: KD (μM) ErbB3
[5] = immobilized extracellular domain, surface plasmon resonance, read-out: KD (μM) ErbB1
[6] = immobilized extracellular domain, surface plasmon resonance, read-out: KD (μM) ErbB2
[7] = erbB2-SbdIV immobilized on the surface chip, FIG. 3B
[8] = FIG. 3A, erbB receptors immobilized on the sensor chip, global fitting to 1:1 Langmurian interaction model

T3 sequence (P00533 25-645 limits assumed): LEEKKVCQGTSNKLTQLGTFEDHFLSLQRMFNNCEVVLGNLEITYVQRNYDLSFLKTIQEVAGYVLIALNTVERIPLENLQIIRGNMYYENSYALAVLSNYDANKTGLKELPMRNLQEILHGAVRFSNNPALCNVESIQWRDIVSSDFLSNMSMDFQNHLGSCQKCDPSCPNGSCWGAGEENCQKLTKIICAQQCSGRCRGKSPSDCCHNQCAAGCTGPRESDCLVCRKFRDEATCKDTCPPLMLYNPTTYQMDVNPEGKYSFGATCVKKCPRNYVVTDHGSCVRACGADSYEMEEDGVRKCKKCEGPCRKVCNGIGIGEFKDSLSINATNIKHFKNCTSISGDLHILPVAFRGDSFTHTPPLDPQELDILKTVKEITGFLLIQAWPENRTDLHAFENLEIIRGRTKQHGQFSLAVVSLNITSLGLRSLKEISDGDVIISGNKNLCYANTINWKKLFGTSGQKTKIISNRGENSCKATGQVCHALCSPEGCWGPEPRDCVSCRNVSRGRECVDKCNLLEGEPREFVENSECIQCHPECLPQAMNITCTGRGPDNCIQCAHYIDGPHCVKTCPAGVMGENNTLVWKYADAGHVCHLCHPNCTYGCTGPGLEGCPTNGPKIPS
T4 sequence (P00533 25-645 limits assumed, one chain of several): as the sequence (P00533 25-645 limits assumed) above
T1 sequence (P21860 20-643 limits assumed): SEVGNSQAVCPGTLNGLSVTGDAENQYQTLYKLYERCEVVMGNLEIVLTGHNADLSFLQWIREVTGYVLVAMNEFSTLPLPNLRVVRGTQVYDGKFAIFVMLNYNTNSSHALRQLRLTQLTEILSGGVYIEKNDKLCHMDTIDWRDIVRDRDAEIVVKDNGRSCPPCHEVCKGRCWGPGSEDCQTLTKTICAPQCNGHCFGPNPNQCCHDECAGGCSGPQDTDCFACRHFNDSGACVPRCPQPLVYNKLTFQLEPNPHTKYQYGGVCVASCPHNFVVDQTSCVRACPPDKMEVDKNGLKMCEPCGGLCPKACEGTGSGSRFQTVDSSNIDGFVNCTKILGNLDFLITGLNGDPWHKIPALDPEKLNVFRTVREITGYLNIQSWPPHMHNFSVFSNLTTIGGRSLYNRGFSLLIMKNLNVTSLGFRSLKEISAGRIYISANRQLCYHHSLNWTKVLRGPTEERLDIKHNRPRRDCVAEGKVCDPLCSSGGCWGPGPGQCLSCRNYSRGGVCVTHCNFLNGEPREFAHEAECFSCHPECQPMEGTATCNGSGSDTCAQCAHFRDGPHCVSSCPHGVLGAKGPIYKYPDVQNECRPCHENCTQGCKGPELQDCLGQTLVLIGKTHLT
T2 sequence (P21860 20-643 limits assumed): as above
T5 sequence (P04626 23-652 limits assumed, one chain of several): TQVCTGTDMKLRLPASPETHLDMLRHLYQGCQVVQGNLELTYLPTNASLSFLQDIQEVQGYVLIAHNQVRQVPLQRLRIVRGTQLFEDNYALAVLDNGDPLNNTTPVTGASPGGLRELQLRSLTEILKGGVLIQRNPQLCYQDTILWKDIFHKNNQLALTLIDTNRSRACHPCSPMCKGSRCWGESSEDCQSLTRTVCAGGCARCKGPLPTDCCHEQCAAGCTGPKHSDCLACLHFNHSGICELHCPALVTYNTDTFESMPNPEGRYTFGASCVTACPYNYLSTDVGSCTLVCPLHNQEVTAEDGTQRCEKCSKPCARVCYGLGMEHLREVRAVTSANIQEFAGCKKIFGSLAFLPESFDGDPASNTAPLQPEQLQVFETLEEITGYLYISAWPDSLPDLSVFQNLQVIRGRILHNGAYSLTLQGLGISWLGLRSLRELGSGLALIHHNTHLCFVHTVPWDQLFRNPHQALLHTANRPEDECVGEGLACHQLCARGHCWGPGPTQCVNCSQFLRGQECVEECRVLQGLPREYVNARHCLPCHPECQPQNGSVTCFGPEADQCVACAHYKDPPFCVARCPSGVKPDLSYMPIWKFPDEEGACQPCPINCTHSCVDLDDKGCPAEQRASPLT
T6 sequence (P04626 23-652 limits assumed): as the sequence (P04626 23-652 limits assumed, one chain of several) above
T7 sequence (P04626 509-657): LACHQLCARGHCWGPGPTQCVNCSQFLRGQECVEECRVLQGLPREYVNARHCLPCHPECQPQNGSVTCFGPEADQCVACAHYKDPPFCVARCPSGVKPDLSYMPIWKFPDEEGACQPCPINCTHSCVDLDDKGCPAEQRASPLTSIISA

| SMILES | Kd (ErbB3; [4]) [µM] | Percent Inhibition ErbB3 [1] [%] | Kd (ErbB1; [5]) [µM] | Percent Inhibition ErbB1 [2] [%] | Percent Inhibition ErbB2 [3] [%] | Kd (ErbB2; [6]) [µM] | Kd (ErbB3) [µM] | Kd (erbB2-SbdIV) [µM] | koff (erbB2-SbdIV; [7]) [s⁻¹] | kon (erbB2-SbdIV; [7]) [M⁻¹ s⁻¹] | Kd (ErbB1) [µM] | koff (ErbB2; [8]) [s⁻¹] | kon (ErbB2; [8]) [M⁻¹ s⁻¹] | Kd (ErbB2; KD (μM) ErbB2, immobilized extracellular domain, surface plasmon resonance) [µM] | Kd (ErbB2; dissociation constant (Kd), FIG. 3A, koff/kon ratio) [µM] |
| --- | --- | --- | --- | --- | --- | --- | --- | --- | --- | --- | --- | --- | --- | --- | --- |
| CC(C)C[C@@H]1NC(=O)[C@@H](NC(=O)[C@@H](N)Cc2ccc(O)cc2)CSSC[C@@H](C(=O)N[C@@H](Cc2ccc(O)cc2)C(N)=O)NC(=O)CNC(=O)[C@H](C)NC(=O)[C@H](CC(=O)O)NC(=O)[C@H](C)NC(=O)[C@H](Cc2ccc(O)cc2)NC(=O)[C@H](CCCCN)NC(=O)[C@H](Cc2c[nH]c3ccccc23)NC(=O)[C@H](C(C)C)NC1=O [B1-S22-ALG] (H-YCLVWKYADAGCY-NH2; disulfide 2-12) | 0.288 | 75.1 | 0.449 | 65.2 | 71.4 | 0.371 |  |  |  |  |  |  |  |  |  |
| CC[C@H](C)[C@@H]1NC(=O)[C@@H]2CCCN2C(=O)[C@@H](NC(=O)[C@@H](N)Cc2ccc(O)cc2)CSSC[C@@H](C(=O)N[C@@H](Cc2ccc(O)cc2)C(N)=O)NC(=O)[C@H](CCC(=O)O)NC(=O)[C@H](CCC(=O)O)NC(=O)[C@H](CC(=O)O)NC(=O)[C@@H]2CCCN2C(=O)[C@H](Cc2ccccc2)NC(=O)[C@H](CCCCN)NC(=O)[C@H](Cc2c[nH]c3ccccc23)NC1=O [B2-S22-APE] (H-YCPIWKFPDEECY-NH2; disulfide 2-12) |  | 42.7 |  | 80.3 | 51.1 |  | 1.4 | 1.89 | 0.00307 | 1620 | 0.21 | 0.000685 | 3240 | 1.53 | 0.21 |
| CC[C@H](C)[C@@H]1NC(=O)[C@H](Cc2ccccc2)NC(=O)[C@@H](NC(=O)[C@@H](N)Cc2ccc(O)cc2)CSSC[C@@H](C(=O)N[C@@H](Cc2ccc(O)cc2)C(N)=O)NC(=O)[C@H](CC(=O)O)NC(=O)[C@@H]2CCCN2C(=O)[C@H](CC(=O)O)NC(=O)[C@H](C)NC(=O)[C@H](Cc2ccc(O)cc2)NC(=O)[C@H](CCCCN)NC(=O)[C@H](Cc2ccccc2)NC1=O [B4-S22-AFD] (H-YCFIFKYADPDCY-NH2; disulfide 2-12) | 0.394 | 72.8 | 0.583 | 60.3 | 54.2 | 0.639 |  |  |  |  |  |  |  |  |  |

More lines, main results first:

| Kd (ErbB3; [4]) [µM] | Percent Inhibition ErbB3 [1] [%] | Kd (ErbB1; [5]) [µM] | Percent Inhibition ErbB1 [2] [%] | Percent Inhibition ErbB2 [3] [%] | Kd (ErbB2; [6]) [µM] | SMILES | Kd (ErbB3) [µM] | Kd (erbB2-SbdIV) [µM] | koff (erbB2-SbdIV; [7]) [s⁻¹] | kon (erbB2-SbdIV; [7]) [M⁻¹ s⁻¹] | Kd (ErbB1) [µM] | koff (ErbB2; [8]) [s⁻¹] | kon (ErbB2; [8]) [M⁻¹ s⁻¹] | Kd (ErbB2; KD (μM) ErbB2, immobilized extracellular domain, surface plasmon resonance) [µM] | Kd (ErbB2; dissociation constant (Kd), FIG. 3A, koff/kon ratio) [µM] |
| --- | --- | --- | --- | --- | --- | --- | --- | --- | --- | --- | --- | --- | --- | --- | --- |
| 1.07 | 32.4 | 0.472 | 69.0 | 58.1 | 0.549 | CC[C@H](C)[C@@H]1NC(=O)[C@@H]2CCCN2C(=O)[C@@H](NC(=O)[C@@H](N)Cc2ccc(O)cc2)CSSC[C@@H](C(=O)N[C@@H](Cc2ccc(O)cc2)C(N)=O)NC(=O)[C@H](CCC(N)=O)NC(=O)[C@H](C(C)C)NC(=O)[C@H](CC(=O)O)NC(=O)[C@@H]2CCCN2C(=O)[C@H](Cc2ccc(O)cc2)NC(=O)[C@H](CCCCN)NC(=O)[C@H](Cc2ccc(O)cc2)NC1=O [B3-S22-APQ] (H-YCPIYKYPDVQCY-NH2; disulfide 2-12) |  |  |  |  |  |  |  |  |  |
| > 1000 | 3.1 | > 1000 | 2.4 | −1.2 | > 1000 | CC[C@H](C)[C@@H]1NC(=O)[C@H](Cc2ccc(O)cc2)NC(=O)[C@@H](NC(=O)[C@@H](N)Cc2ccccc2)CSSC[C@@H](C(=O)N[C@@H](Cc2ccc(O)cc2)C(N)=O)NC(=O)[C@H](CCC(N)=O)NC(=O)[C@H](CC(=O)O)NC(=O)[C@H](CCC(=O)O)NC(=O)[C@H](C(C)C)NC(=O)[C@H](CCC(=O)O)NC(=O)CNC1=O [CD4-G, reference compound] (H-FCYIGEVEDQCY-NH2; disulfide 2-11) |  |  |  |  |  |  |  |  |  |
